target: T1, MAT2A (Homo sapiens, UniProt P31153); test: MAT2A biochemical assay (colorimetric inorganic phosphate detection, PiColorLock); conditions: recombinant His6-tagged MAT2A 1 μg/ml; 60 minutes preincubation at 25° C.; L-Met 80 μM, ATP 100 μM; 60 minutes reaction; read at 623 nm; read-out: MAT2A Inhibition Score
T1 construct: His6; made in house; host or cells: SF9 insect cells
Experimental: In the reaction catalyzed by MAT2A enzyme, L-Met and ATP were converted to SAM, inorganic phosphate, and inorganic diphosphate. […] The concentration of malachite green phosphomolybdate produced in the detection reaction is thus directly related to the quantity of product produced by the MAT2A enzyme. Multiple commercial kits exist for this method of phosphate detection and quantification, such as PiColorLock Gold (Innova Biosciences). Typical reaction was performed in 50 μl final volume, containing buffer (Tris, pH 8.0, 50 mM KCl, 15 mM MgCl2, 300 uM EDTA, bovine serum albumin at 0.005% w/v) and 1 μg/ml MAT2A. Compounds were added in 1 μl of DMSO at the desired concentration; a typical dose response curve contained ten points with three-fold dilution between compound concentrations. […] The reaction was allowed to proceed for 60 minutes at room temperature then halted by the addition of 13 μl of PiColor Lock reagent. After a further 5 minutes of incubation at room temperature, […] of PiColor Stabilizer was added and the reactions were further incubated at 25° C. for 25 minutes. […] Recombinant MAT2A protein was expressed in SF9 insect cells and purified by metal chelate affinity chromatography, using methods well known in the art. After expression of His6-tagged MAT2A cells were disrupted by 4 passes through an M-Yl 10 Micro fluidizer (Microfluidics) set to 500 psi, and then centrifuged at 22,000 rcf for 20 min at 4° C. The supernatant was harvested and loaded at 15 cm/h on a Histrap FF 5*1 ml column (GE) which was equilibrated with 50 mM Tris, 500 mM NaCl, pH7.4. Host cell contaminants were removed by washing the column with equilibration buffer followed by equilibration buffer containing 20 mM imidazole and 60 mM imidazole to baseline. MAT2A protein was eluted by the addition of buffer containing 250 mM imidazole, dialized into 50 mM NaCl, 50 mM Tris, pH 7.4, flash frozen in liquid nitrogen, and stored at −80° C. until use.

T1 sequence (P31153 whole entry): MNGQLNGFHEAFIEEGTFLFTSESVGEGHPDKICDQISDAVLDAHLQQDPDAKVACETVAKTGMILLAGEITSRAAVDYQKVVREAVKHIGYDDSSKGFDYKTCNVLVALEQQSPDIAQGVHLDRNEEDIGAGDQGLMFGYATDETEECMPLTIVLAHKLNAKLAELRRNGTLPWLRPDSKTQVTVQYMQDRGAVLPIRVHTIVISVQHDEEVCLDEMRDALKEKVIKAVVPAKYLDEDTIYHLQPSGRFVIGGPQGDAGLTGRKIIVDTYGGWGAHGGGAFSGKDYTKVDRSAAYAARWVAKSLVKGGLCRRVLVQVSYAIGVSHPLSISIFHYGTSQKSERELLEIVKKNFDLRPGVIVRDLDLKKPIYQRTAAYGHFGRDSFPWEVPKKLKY

IC50, < 100 nM:
COc1ccc(-c2c(Nc3cccnn3)[nH]c3c(-c4ccccc4)c(-c4ccccc4)nn3c2=O)cc1 [Compound 101, 6-(4-methoxyphenyl)-2,3-diphenyl-5-(pyridazin-3-ylamino)pyrazolo[1,5-a]pyrimidin-7(4H)-one]
COc1ccc(-c2c(Nc3ccccn3)[nH]c3c(-c4ccccc4)c(-c4ccccc4)nn3c2=O)cc1 [Compound 102, 6-(4-methoxyphenyl)-2,3-diphenyl-5-(pyridin-2-ylamino)pyrazolo[1,5-a]pyrimidin-7(4H)-one]
COc1ccc(-c2c(Nc3cccnc3)[nH]c3c(-c4ccccc4)c(-c4ccccc4)nn3c2=O)cc1 [Compound 103, 6-(4-methoxyphenyl)-2,3-diphenyl-5-(pyridin-3-ylamino)pyrazolo[1,5-a]pyrimidin-7(4H)-one]
COc1ccc(-c2c(Nc3ccc(C#N)cn3)[nH]c3c(-c4ccccc4)c(-c4ccccc4)nn3c2=O)cc1 [Compound 104, 6-((6-(4-methoxyphenyl)-7-oxo-2,3-diphenyl-4,7-dihydropyrazolo[1,5-a]pyrimidin-5-yl)amino)nicotinonitrile]
COc1ccc(-c2c(Nc3ccc(F)cn3)[nH]c3c(-c4ccccc4)c(-c4ccccc4)nn3c2=O)cc1 [Compound 105, 5-((5-fluoropyridin-2-yl)amino)-6-(4-methoxyphenyl)-2,3-diphenylpyrazolo[1,5-a]pyrimidin-7(4H)-one]
COc1ccc(-c2c(Nc3ccc(Cl)cn3)[nH]c3c(-c4ccccc4)c(-c4ccccc4)nn3c2=O)cc1 [Compound 106, 5-((5-chloropyridin-2-yl)amino)-6-(4-methoxyphenyl)-2,3-diphenylpyrazolo[1,5-a]pyrimidin-7(4H)-one]
COc1ccc(-c2c(Nc3ccc([N+](=O)[O-])cn3)[nH]c3c(-c4ccccc4)c(-c4ccccc4)nn3c2=O)cc1 [Compound 107, 6-(4-methoxyphenyl)-5-((5-nitropyridin-2-yl)amino)-2,3-diphenylpyrazolo[1,5-a]pyrimidin-7(4H)-one]
COc1ccc(-c2c(Nc3ccc(O)cn3)[nH]c3c(-c4ccccc4)c(-c4ccccc4)nn3c2=O)cc1 [Compound 108, 5-(5-hydroxypyridin-2-ylamino)-6-(4-methoxyphenyl)-2,3-diphenylpyrazolo[1,5-a]pyrimidin-7(4H)-one]
COc1ccc(-c2c(Nc3cc(O)ccn3)[nH]c3c(-c4ccccc4)c(-c4ccccc4)nn3c2=O)cc1 [Compound 109, 5-((4-hydroxypyridin-2-yl)amino)-6-(4-methoxyphenyl)-2,3-diphenylpyrazolo[1,5-a]pyrimidin-7(4H)-one]
COc1ccc(-c2c(Nc3cccc(F)n3)[nH]c3c(-c4ccccc4)c(-c4ccccc4)nn3c2=O)cc1 [Compound 110, 5-((6-fluoropyridin-2-yl)amino)-6-(4-methoxyphenyl)-2,3-diphenylpyrazolo[1,5-a]pyrimidin-7(4H)-one]
COc1ccc(-c2c(Nc3cccc(C#N)n3)[nH]c3c(-c4ccccc4)c(-c4ccccc4)nn3c2=O)cc1 [Compound 111, 6-((6-(4-methoxyphenyl)-7-oxo-2,3-diphenyl-4,7-dihydropyrazolo[1,5-a]pyrimidin-5-yl)amino)picolinonitrile]
COc1ccc(-c2c(Nc3cccc(C(N)=O)n3)[nH]c3c(-c4ccccc4)c(-c4ccccc4)nn3c2=O)cc1 [Compound 112, 6-((6-(4-methoxyphenyl)-7-oxo-2,3-diphenyl-4,7-dihydropyrazolo[1,5-a]pyrimidin-5-yl)amino)picolinamide]
COc1ccc(-c2c(Nc3ncccc3O)[nH]c3c(-c4ccccc4)c(-c4ccccc4)nn3c2=O)cc1 [Compound 113, 5-(3-hydroxypyridin-2-ylamino)-6-(4-methoxy-phenyl)-2,3-diphenylpyrazolo[1,5-a]pyrimidin-7(4H)-one]
COc1ccc(-c2c(Nc3cc(C#N)ccn3)[nH]c3c(-c4ccccc4)c(-c4ccccc4)nn3c2=O)cc1 [Compound 114, 2-(6-(4-methoxyphenyl)-7-oxo-2,3-diphenyl-4,7-dihydropyrazolo[1,5-a]pyrimidin-5-ylamino)isonicotinonitrile]
COc1ccc(-c2c(Nc3ncc(C#N)cn3)[nH]c3c(-c4ccccc4)c(-c4ccccc4)nn3c2=O)cc1 [Compound 115, 2-(6-(4-methoxyphenyl)-7-oxo-2,3-diphenyl-4,7-dihydropyrazolo[1,5-a]pyrimidin-5-ylamino)pyrimidine-5-carbonitrile]
COc1ccc(-c2c(Nc3ccncn3)[nH]c3c(-c4ccccc4)c(-c4ccccc4)nn3c2=O)cc1 [Compound 116, 6-(4-methoxyphenyl)-2,3-diphenyl-5-(pyrimidin-4-ylamino)pyrazolo[1,5-a]pyrimidin-7(4H)-one]
COc1ccc(-c2c(Nc3cc(N)ncn3)[nH]c3c(-c4ccccc4)c(-c4ccccc4)nn3c2=O)cc1 [Compound 117, 5-((6-aminopyrimidin-4-yl)amino)-6-(4-methoxyphenyl)-2,3-diphenylpyrazolo[1,5-a]pyrimidin-7(4H)-one]
COc1ccc(-c2c(Nc3ccnc(OC)n3)[nH]c3c(-c4ccccc4)c(-c4ccccc4)nn3c2=O)cc1 [Compound 118, 6-(4-methoxyphenyl)-5-((2-methoxypyrimidin-4-yl)amino)-2,3-diphenylpyrazolo[1,5-a]pyrimidin-7(4H)-one]
COc1ccc(-c2c(Nc3ccnc(O)n3)[nH]c3c(-c4ccccc4)c(-c4ccccc4)nn3c2=O)cc1 [Compound 119, 5-(2-hydroxypyrimidin-4-ylamino)-6-(4-methoxyphenyl)-2,3-diphenyl-pyrazolo[1,5-a]pyrimidin-7(4H)-one]
COc1ccc(-c2c(Nc3cncnc3)[nH]c3c(-c4ccccc4)c(-c4ccccc4)nn3c2=O)cc1 [Compound 120, 6-(4-methoxyphenyl)-2,3-diphenyl-5-(pyrimidin-5-ylamino)pyrazolo[1,5-a]pyrimidin-7(4H)-one]
COc1ccc(-c2c(Nc3ncccn3)[nH]c3c(-c4ccccc4)c(-c4ccccc4)nn3c2=O)cc1 [Compound 121, 6-(4-methoxyphenyl)-2,3-diphenyl-5-(pyrimidin-2-ylamino)pyrazolo[1,5-a]pyrimidin-7(4H)-one]
COc1ccc(-c2c(Nc3ncc(Cl)cn3)[nH]c3c(-c4ccccc4)c(-c4ccccc4)nn3c2=O)cc1 [Compound 122, 5-((5-chloropyrimidin-2-yl)amino)-6-(4-methoxyphenyl)-2,3-diphenylpyrazolo[1,5-a]pyrimidin-7(4H)-one]
COc1ccc(-c2c(Nc3ccc(N)nn3)[nH]c3c(-c4ccccc4)c(-c4ccccc4)nn3c2=O)cc1 [Compound 123, 5-((6-aminopyridazin-3-yl)amino)-6-(4-methoxyphenyl)-2,3-diphenylpyrazolo[1,5-a]pyrimidin-7(4H)-one]
COc1ccc(-c2c(Nc3ccc(OC)nn3)[nH]c3c(-c4ccccc4)c(-c4ccccc4)nn3c2=O)cc1 [Compound 124, 6-(4-methoxyphenyl)-5-((6-methoxypyridazin-3-yl)amino)-2,3-diphenylpyrazolo[1,5-a]pyrimidin-7(4H)-one]
COc1ccc(-c2c(Nc3ccc(Cl)nn3)[nH]c3c(-c4ccccc4)c(-c4ccccc4)nn3c2=O)cc1 [Compound 125, 5-((6-chloropyridazin-3-yl)amino)-6-(4-methoxyphenyl)-2,3-diphenylpyrazolo[1,5-a]pyrimidin-7(4H)-one]
COc1ccc(-c2c(Nc3cnccn3)[nH]c3c(-c4ccccc4)c(-c4ccccc4)nn3c2=O)cc1 [Compound 126, 6-(4-methoxyphenyl)-2,3-diphenyl-5-(pyrazin-2-ylamino)pyrazolo[1,5-a]pyrimidin-7(4H)-one]
COc1ccc(-c2c(Nc3nccnc3O)[nH]c3c(-c4ccccc4)c(-c4ccccc4)nn3c2=O)cc1 [Compound 127, 5-((3-hydroxypyrazin-2-yl)amino)-6-(4-methoxyphenyl)-2,3-diphenylpyrazolo[1,5-a]pyrimidin-7(4H)-one]
COc1ccc(-c2c(Nc3nccnc3N)[nH]c3c(-c4ccccc4)c(-c4ccccc4)nn3c2=O)cc1 [Compound 128, 5-((3-aminopyrazin-2-yl)amino)-6-(4-methoxyphenyl)-2,3-diphenylpyrazolo[1,5-a]pyrimidin-7(4H)-one]
